As usually defined, the viability is a read-out of living cells in per cent, often relative to untreated cells.

Molecules are shown by their SMILES.

The nature of the first data set: in vitro. The conditions noted are these: human, hela cells, % viability.
For `COC(=O)c1oc(-c2ccc(OC)cc2)c(-c2ccc(OC)cc2)c1C(N)=O` [CBK001957], the viability at 28.5 h, 10 µM was found to be 98.7%.

As to `CC(C)(C)OC(=O)N1CCN(c2cc(N)ncn2)CC1` [CBK001963], the viability at 28.5 h, 10 µM amounted to 101%.

With `OCCOc1ccccc1-c1cc[nH]n1` [CBK001973], the viability at 28.5 h, 10 µM was 104%.

As to `COc1ccc(C)cc1OCCO` [CBK001975], the viability at 28.5 h, 10 µM amounted to 104%.

For `CC(=O)N1CCN(c2ccc(OCCO)cc2)CC1` [CBK001978], the viability at 28.5 h, 10 µM stood at 90.8%.

On to `Cc1ccc(S(=O)(=O)NC(=O)N2CCCC2)cc1` [CBK001984], for which the viability at 28.5 h, 10 µM came to 87.3%.

Take `O=C(NC1CCCC1)c1ccccc1Cl` [CBK001992]: the viability at 28.5 h, 10 µM is 98.3%.

Regarding `COc1ccc(CN2C(=O)CC(c3ccccc3)C2=O)cc1` (stereo not drawn) [CBK002055], the viability at 28.5 h, 10 µM was determined as 99.4%.

As to `O=C(NC1CCCC1)c1ccc(Cl)cc1Cl` [CBK002108], the viability at 28.5 h, 10 µM amounted to 93.7%.

With `CC(CCN(CCN)C(=O)N1CCC(Cn2cncn2)(C2CCCCC2)CC1)c1ccccc1` (stereo not drawn) [CBK002130C], the viability at 28.5 h, 10 µM is 110%.

As for `O=C(NC1CCCC1)c1ccc2c(c1)OCO2` [CBK002177], the viability at 28.5 h, 10 µM was 81%.

In the case of `OC(CNCCc1cccnc1)COc1cccc2c1CCCC2` (stereo not drawn) [CBK002237], the viability at 28.5 h, 10 µM was 106%.

Turning to `OC(CNCc1cccs1)COc1cccc2c1CCCC2` (stereo not drawn) [CBK002239], the viability at 28.5 h, 10 µM worked out at 96.1%.

With `N#CC(CCCN1CCN(c2ccccc2)CC1)(c1ccccc1)c1ccccc1` [CBK002243C], the viability at 28.5 h, 10 µM worked out at 96.8%.

For `COC(=O)c1cc(O)ccc1N` [CBK002250], the viability at 28.5 h, 10 µM was 105%.

`N=C(N)NCc1ccc(Cl)cc1` [CBK002260]: the viability at 28.5 h, 10 µM came to 95.7%.

Regarding `O=C(CNC(=O)OCc1ccccc1)NCC(CCCN1CCN(c2ccccc2)CC1)(c1ccccc1)c1ccccc1` [CBK002293], the viability at 28.5 h, 10 µM amounted to 125%.

As to `CCOC(=O)c1c(-c2ccc(OC)cc2)noc1C(=O)c1ccccc1` [CBK002295], the viability at 28.5 h, 10 µM is 89.7%.

On to `COCCNS(=O)(=O)c1ccc(C)cc1` [CBK002332], for which the viability at 28.5 h, 10 µM came out at 82.5%.

Take `NC(Cc1ccccc1)CN(CC1(c2ccc(Cl)cc2)CC1)C(=O)Nc1ccc2c(c1)OCO2` (stereo not drawn) [CBK002342C]: the viability at 28.5 h, 10 µM came to 76.1%.

Regarding `COc1ccc2c(ccn2S(=O)(=O)c2ccsc2C(=O)O)c1` [CBK002378], the viability at 28.5 h, 10 µM turned out to be 102%.

For the compound `Cc1[nH]cnc1CN1CCc2c(c3ccccc3n2C)C1=O` [CBK002383C], the viability at 28.5 h, 10 µM came to 63.5%.

Regarding `COc1cc(CNc2nc(O)cc(C(F)(F)F)n2)cc(OC)c1OC` [CBK002390], the viability at 28.5 h, 10 µM was determined as 90.3%.

Turning to `COc1ccc(F)c(CN(CC(C)(C)CN)C(=O)Nc2c(F)cccc2F)c1` [CBK002405C], the viability at 28.5 h, 10 µM was 109%.

For the compound `Cc1c(F)cccc1CN(CC(C)(C)CN)C(=O)Nc1ccc(C(F)(F)F)cc1` [CBK002417C], the viability at 28.5 h, 10 µM was 89.5%.

For the compound `Cc1cccc(CN(CC(C)(C)CN)C(=O)NC(C)c2cccc3ccccc23)n1` (stereo not drawn) [CBK002423C], the viability at 28.5 h, 10 µM worked out at 84.4%.

As for `COc1ccccc1CN(CC(C)(C)CN)C(=O)NC1C[C@H]1c1ccccc1` (stereo partly drawn) [CBK002424C], the viability at 28.5 h, 10 µM was determined as 89.6%.

For `CC(NC(=O)N(Cc1ccc(-c2ccccc2)cc1)CC(C)(C)CN)c1cccc2ccccc12` (stereo not drawn) [CBK002426C], the viability at 28.5 h, 10 µM stood at 50.9%.

As to `CC(C)(CN)CN(Cc1ccncc1)C(=O)Nc1ccc(C(C)(C)C)cc1` [CBK002459C], the viability at 28.5 h, 10 µM stood at 82%.

In the case of `COc1ccc(F)c(CN(CC(C)(C)CN)C(=O)Nc2ccc(C(C)(C)C)cc2)c1` [CBK002461C], the viability at 28.5 h, 10 µM turned out to be 94%.

As to `CC(C)(CN)CN(Cc1c[nH]c(-c2ccccc2)n1)C(=O)Nc1ccc(C(C)(C)C)cc1` [CBK002462C], the viability at 28.5 h, 10 µM stood at 87.5%.

With `COc1ccc(F)c(CN(CC(C)(C)CN)C(=O)Nc2ccccc2C(C)(C)C)c1` [CBK002478C], the viability at 28.5 h, 10 µM came out at 98.1%.

Regarding `Cc1c(F)cccc1CN(CC(C)(C)CN)C(=O)Nc1ccc2c(c1)OCO2` [CBK002486C], the viability at 28.5 h, 10 µM came out at 87.9%.

In the case of `CN1CC[C@@]2(c3cc(F)cc(F)c3)CCC(=O)CC12` (stereo partly drawn) [CBK002500], the viability at 28.5 h, 10 µM came to 110%.

Consider `O=[N+]([O-])c1ccc(Oc2ccccc2F)cc1` [CBK002532], for which the viability at 28.5 h, 10 µM was 93.9%.

`O=[N+]([O-])c1cc(F)ccc1Oc1cccc2c1CCCC2` [CBK002559]: the viability at 28.5 h, 10 µM is 93.5%.

On to `Cc1ccccc1COc1cccc2c1CCCC2` [CBK002562], for which the viability at 28.5 h, 10 µM came out at 98.2%.

Consider `COc1cc(C#N)ccc1Oc1nnnn1-c1ccccc1` [CBK002571], for which the viability at 28.5 h, 10 µM turned out to be 93.1%.

For `N#Cc1c(Oc2cccc(Cl)c2Cl)cccc1C(F)(F)F` [CBK002592], the viability at 28.5 h, 10 µM is 91.1%.

`O=[N+]([O-])c1cccnc1Oc1cccc(Cl)c1Cl` [CBK002596]: the viability at 28.5 h, 10 µM is 98%.

As to `Cc1ccccc1COc1cccc(Cl)c1Cl` [CBK002607], the viability at 28.5 h, 10 µM amounted to 90.6%.

For `Cn1cnc([N+](=O)[O-])c1Sc1cccs1` [CBK002620], the viability at 28.5 h, 10 µM was 90.6%.

As to `O=[N+]([O-])c1ccc(Sc2cccs2)c(C(F)(F)F)c1` [CBK002621], the viability at 28.5 h, 10 µM is 105%.

Regarding `COc1ccc([N+](=O)[O-])c(Sc2cccs2)n1` [CBK002625], the viability at 28.5 h, 10 µM is 84.9%.

With `Clc1ccc(COc2cccc3c2CCCC3)cn1` [CBK002634], the viability at 28.5 h, 10 µM was 102%.

Regarding `Clc1ccc(CSc2cccs2)cn1` [CBK002639], the viability at 28.5 h, 10 µM stood at 95.5%.

Regarding `CCOC(=O)c1ccc(-c2ccc(OC)cc2)cc1` [CBK002658], the viability at 28.5 h, 10 µM came to 95.2%.

`COc1ccc([C@@]23CC/C(=N/NS(=O)(=O)c4ccc(C)cc4)C[C@@H]2N(Cc2ccccc2)CC3)cc1OC` [CBK002717]: the viability at 28.5 h, 10 µM was found to be 95.5%.

For `O=[N+]([O-])c1ccc(Oc2ccccc2)nc1` [CBK002726], the viability at 28.5 h, 10 µM stood at 85.8%.

As for `N#Cc1c(Oc2cccc3cccnc23)cccc1C(F)(F)F` [CBK002728], the viability at 28.5 h, 10 µM amounted to 105%.

For `N#Cc1ccc(COc2ccccc2)cc1` [CBK002738], the viability at 28.5 h, 10 µM was 96.4%.

In the case of `O=[N+]([O-])c1ccc(Oc2cccc3cccnc23)c(C(F)(F)F)c1` [CBK002739], the viability at 28.5 h, 10 µM is 80.6%.

With `Cn1cnc([N+](=O)[O-])c1Oc1ccccc1OCc1ccccc1` [CBK002747], the viability at 28.5 h, 10 µM was 91.7%.

On to `COc1ccc([N+](=O)[O-])c(Oc2ccccc2OCc2ccccc2)n1` [CBK002753], for which the viability at 28.5 h, 10 µM was determined as 88%.

Take `Clc1ccc(COc2ccccc2OCc2ccccc2)s1` [CBK002766]: the viability at 28.5 h, 10 µM worked out at 87.7%.

Consider `FC(F)(F)Sc1ccc(COc2cccc3cccnc23)cc1` [CBK002776], for which the viability at 28.5 h, 10 µM amounted to 94.5%.

As for `Cn1cnc([N+](=O)[O-])c1Oc1cccc(C(F)(F)F)c1` [CBK002790], the viability at 28.5 h, 10 µM worked out at 87%.

`COc1ccc([N+](=O)[O-])c(Oc2cccc(C(F)(F)F)c2)n1` [CBK002796]: the viability at 28.5 h, 10 µM came to 94.5%.

As for `O=[N+]([O-])c1cc(F)ccc1Oc1cccc(C(F)(F)F)c1` [CBK002802], the viability at 28.5 h, 10 µM turned out to be 91.9%.

For `N#Cc1ccc(COc2cccc(C(F)(F)F)c2)cc1` [CBK002811], the viability at 28.5 h, 10 µM was found to be 103%.

Turning to `Cc1ccc(Oc2ccc(C(F)(F)F)cc2[N+](=O)[O-])c(Br)c1` [CBK002817], the viability at 28.5 h, 10 µM was determined as 93.1%.

For `Cc1ccc(Oc2c([N+](=O)[O-])ncn2C)c(Br)c1` [CBK002819], the viability at 28.5 h, 10 µM was 99.2%.

For `Cc1ccc(Oc2ncccc2[N+](=O)[O-])c(Br)c1` [CBK002822], the viability at 28.5 h, 10 µM stood at 94.8%.

For `Cc1ccc(Oc2cc(C)c([N+](=O)[O-])cn2)c(Br)c1` [CBK002823], the viability at 28.5 h, 10 µM was determined as 92.2%.

Regarding `Cc1ccc(Oc2ccc([N+](=O)[O-])cc2)c(Br)c1` [CBK002832], the viability at 28.5 h, 10 µM was 90.6%.

Take `Cc1ccc(OCc2ccccc2)c(Br)c1` [CBK002833]: the viability at 28.5 h, 10 µM stood at 105%.

Consider `Cc1ccc(OCc2ccc(Cl)s2)c(Br)c1` [CBK002840], for which the viability at 28.5 h, 10 µM is 79%.

As for `Cc1ccc(OCc2ccc(Cl)nc2)c(Br)c1` [CBK002842], the viability at 28.5 h, 10 µM came to 75.8%.

`CCN(CC)C(=O)[C@@H]1CCCN1c1nc(O)cc(C(F)(F)F)n1` [CBK002867]: the viability at 28.5 h, 10 µM turned out to be 92%.

`Cc1cc(=O)oc2cc(SCc3ccc(SC(F)(F)F)cc3)ccc12` [CBK002897]: the viability at 28.5 h, 10 µM was determined as 97.6%.

As for `Cc1cc(=O)oc2cc(SCc3ccc(Cl)s3)ccc12` [CBK002898], the viability at 28.5 h, 10 µM was 89.5%.

As for `O=[N+]([O-])c1ccc(Sc2cccc(F)c2)nc1` [CBK002905], the viability at 28.5 h, 10 µM was found to be 103%.

Turning to `Fc1cccc(Sc2nnnn2-c2ccccc2)c1` [CBK002906], the viability at 28.5 h, 10 µM came to 108%.

With `N#Cc1ccc(Sc2cccc(F)c2)c(F)c1` [CBK002909], the viability at 28.5 h, 10 µM is 115%.

`Cc1ccccc1CSc1cccc(F)c1` [CBK002913]: the viability at 28.5 h, 10 µM came to 109%.

`Cc1cc(=O)oc2cc(Sc3cccc(C(F)(F)F)c3C#N)ccc12` [CBK002914]: the viability at 28.5 h, 10 µM is 93.3%.

As to `Cc1cc(CSc2cccc(F)c2)no1` [CBK002916], the viability at 28.5 h, 10 µM turned out to be 97%.

With `N#Cc1ccc(CSc2cccc(F)c2)cc1` [CBK002918], the viability at 28.5 h, 10 µM came to 109%.

Turning to `N#Cc1ccccc1-c1ccc(CSc2cccc(F)c2)cc1` [CBK002920], the viability at 28.5 h, 10 µM came out at 107%.

Turning to `CN1CCN(c2nc(NS(=O)(=O)c3ccc(C#N)cc3)cc3ccccc23)CC1` [CBK002977C], the viability at 28.5 h, 10 µM worked out at 94.8%.

In the case of `CC(C)(C)OC(=O)N1CCN(c2ccc(C(F)(F)F)c(Cl)n2)CC1` [CBK003030], the viability at 28.5 h, 10 µM is 88.9%.

With `COc1ccc(OC)c(CCO)c1` [CBK003033], the viability at 28.5 h, 10 µM was found to be 94.4%.

Staying with this data set, now noted: human, hela cells, % viability, bulk resorufin, single well.
Regarding `CCOC(=O)C1(c2ccccc2)CCN(C(=O)N(CCN)CCC(C)c2ccccc2)CC1` (stereo not drawn) [CBK002129C], the viability at 28.5 h, 10 µM worked out at 82.6%.

Regarding `O=C1CCCc2c1c1cccc(C(=O)O)c1n2Cc1ccccc1` [CBK002365], the viability at 28.5 h, 10 µM was found to be 95.6%.

The record behind these values is publication PMC12040169 (PLOS Biology, 2025).
